Measured values reported in patent publication US4048299A, “Anticaries confectionaries and oral health products” (William Wrigley, Jr. Co., priority 1970, dated 1977).
Read-outs that look alike come from different tables or passages of the source.

Legend:
Streptococcus spp. FA-1 = assay: Growth inhibition of oral microorganisms in vitro, pour plates; assay type: cell-based; settings: Table IX; for Bacterial Population, Experimental: control 2 × 10^8 to 5 × 10^8; for Inhibition (growth): pour plates incubated 48 - 72 hours
Description: (§1) (a)Determined on freshly grown pure cultures. Pour plates were incubated

L. casei = assay: as above; assay type: cell-based, Lactobacillus casei; settings: Table IX; for Bacterial Population, Experimental: control 8 × 10^8 to 1 × 10^9; for Inhibition (growth): pour plates incubated 48 - 72 hours
Description: as §1

[1] = test system: Lactobacillus casei and Streptococcus sp. FA-1; assay: Acid-production inhibition by broth-tube assay, 0.1 percent of compound; assay type: cell-based; settings: for inhibition at 0.1 %: read-out: Activity, Acid-Production Inhibition%; for Activity, Acid-Production Inhibition, %: Table XII, 0.1% of compound
Description: ^(a) Activity was measured by broth-tube assay to determine percent
(§2) acid-production inhibition obtained by Lactobacillus casei and
Streptococcus sp. FA-1 in the presence of 0.1 percent of compound.
^(a) Activity was measured by broth-tube assay to determine percent o
as §2
Streptococcus sp. FA-1 in the presence of 0.1% of compound. Symbols

oral microorganisms [2] = assay: Acid production inhibition in vitro (summary); assay type: cell-based; settings: in words, summary of tables
Description: (§3) Other in vitro evaluations utilized a broth tube analysis of representative anticaries aldehydes incorporated in the vehicles of this invention against cultures of acid producing microorganisms normally present in the mouth. Standard laboratory procedures were utilized throughout to evaluate the acid production inhibition and growth inhibition over the incubation time of up to 24 hours.

oral microorganisms [3] = assay: Growth inhibition in vitro (summary); assay type: cell-based; settings: in words, summary of tables
Description: as §3

[4] = In vivo caries evaluation, Osborne-Mendel strain 2 rat; parameters: species or system rat (Osborne-Mendel strain 2); Caries Score, Mean Incidence / Caries Score, Mean Extent: scale not given here; settings: for Caries Score, Mean Incidence / Caries Score, Mean Extent: 1 percent in diet; for Caries Extent Reduction, statistical evaluation / Caries Incidence Reduction, statistical evaluation: Student's test, 95 percent confidence limit
Excerpt: (§4) Standard laboratory techniques were used to complie the data presented. In each case the aldehyde was incorporated into each specimen's food in a one percent, by weight, quantity, over a period of several weeks. In all cases, caries reduction was noted.
(§5) The aldehydes tested in vivo were pyruvaldehyde, d,1-glyceraldehyde, crystalline dimer, glycolaldehyde, octanaldehyde, nonanaldehyde, decanaldehyde, undecylenic aldehyde, and lauric aldehyde. The polyaldehydes tested were dialdehyde starch, dialdehyde starch 50 percent oxidized, dialdehyde starch 90 percent oxidized, and dialdehyde galactomannan gum.
^(a) Agents were incorporated in the diet at a 1 percent level.

[5] = test system: Lactobacillus casei ATCC 4646; assay: Acid production inhibition by aldehydes in product vehicles, broth-tube technique; assay type: cell-based; settings: in tooth powder (aqueous extract), 1 to 5 percent aldehyde
Description: as §3
(§6) (a)Measured by broth-tube technique.
(§7) In formulating Tables XIII - XIX representative aldehydes having anticaries activity were selected from those tested as summarized in Tables I - XII and incorporated in seven representative types of products. The products included dextrose and sucrose syrups, obtained commercially in food grades, and compressed candy, hard candy, mouthwash, toothpaste and toothpowder. The five latter products also employed food grade and reagent grade ingredients. These products were formulated by well-known and representative recipes for each type of product. The products were formed in batches of approximately 1 pound or 1 liter and contained all their normal constitutents. Aliquots of each products were blended with one of each of the representative aldehydes selected except in the case of hard candy.
(§8) Aliquots of the aldehyde incorporating sugar syrups, confectioneries, and mouthwash formulations were added directly to assay flasks and mixed or dissolved as required. Aqueous extracts of the aldehyde incorporated in toothpaste and toothpowder were prepared and aliquots of the filtrate were added to the assay flasks.
(§9) The assay flasks contained the necessary components for a normal growth response from the organisms employed, Lactobacillus casei ATCC 4646, originally a human oral isolate, Streptococcus spp. K1-R, human caries isolate, and a mixed oral microbial population obtained fresh from saliva on the morning prior to the initiation of each assay incubation period. The assay flask medium was dissolved in distilled water in which was added an equal volume of filter sterilized human saliva to yield a 50 percent saliva-medium combination. The medium contained all normal ingredients such as yeast extract, proteose peptone number 3 (a proprietary formula of Difco Laboratories, Detroit, Michigan) monopotassium phosphate, Tween 80 (polyoxethylene sorbitan monoleate) and water, except a carbon source. This was supplied by the aliquot of the sucrose syrup, dextrose syrup, sucrose in the compressed candy tablet and sucrose in the hard candy product. In addition, an aliquot of sucrose solution concentrate was added to the assay flask as a carbon source for evaluation of mouthwash, toothpaste, and toothpowder vehicles.
(§10) The lower aldehydes such as glycolaldehyde, crystalline dimer; pyruvaldehyde, aqueous syrup; d,1-glyceraldehyde solution and crystalline dimer; and glutaraldehyde, employed as a 50 percent aqueous solution, are water soluble and were employed directly either as powders or aqueous solutions. The C8 to C12, longer chain aliphatic aldehydes, of which decyl and dodecyl (lauric) were selected as representative, are oil soluble and are prepared and added to the products as emulsions with four parts of Tween 20, polyoxethylene sorbitan monolaurate. The aldehyde concentrations in the products were randomly chosen between 1 to 5 percent by weight. Limits for the concentrations were selected to coincide with the data presented in Tables I - XII in order to verify that the anticaries activity of the aldehydes in the product vehicles tested was equivalent to the activity previously established for the aldehydes alone.

[6] = test system: Mixed human oral microorganisms; assay: as above; assay type: cell-based; settings: in tooth powder (aqueous extract), 1 to 5 percent aldehyde
Description: as §3, §6, §7, §8, §9, §10

Streptococcus spp. KI-R [7] = assay: as above; assay type: cell-based; settings: in tooth powder (aqueous extract), 1 to 5 percent aldehyde
Description: as §3, §6, §7, §8, §9, §10

[8] = test system: Lactobacillus casei ATCC 4646; assay: Growth inhibition by aldehydes in product vehicles, pour-plate technique; assay type: cell-based; settings: in tooth powder (aqueous extract), 1 to 5 percent aldehyde
Description: as §3
(§11) (b)Measured by pour-plate technique.
as §7, §8, §9, §10

[9] = test system: Mixed human oral microorganisms; assay: as above; assay type: cell-based; settings: in tooth powder (aqueous extract), 1 to 5 percent aldehyde
Description: as §3, §11, §7, §8, §9, §10

Streptococcus spp. KI-R [10] = assay: as above; assay type: cell-based; settings: in tooth powder (aqueous extract), 1 to 5 percent aldehyde
Description: as §3, §11, §7, §8, §9, §10

[11] = In vivo caries evaluation, laboratory animals (summary); settings: one percent level in diet
Excerpt: as §4, §5

[12] = Table X, 0.1 percent of compound

## CCCC=CC=O [2-Hexene-1-al]
Streptococcus spp. FA-1
  Bacterial Population, Experimental: 9 × 10^7
  Inhibition (growth): Insignificant
L. casei
  Bacterial Population, Experimental: 8 × 10^8
  Inhibition (growth): Insignificant
[1]
  inhibition at 0.1 %: 90 to 98%
Oral microorganisms [2]
  Acid Production Inhibition: excellent acid production inhibition
Oral microorganisms [3]
  Growth Inhibition: little or no growth inhibition

## O=CCCCC(O)C=O (stereo not shown) [2-Hydroxyadipaldehyde]
[1]
  Activity, Acid-Production Inhibition, %: + (25 to 74)

## CC(C)=CCCC(C)=CC=O [Citral]
[1]; [12]
  inhibition at 0.1 %: 99 to 100%

## OCC1OC(O)C(CO)OC1O (stereo not shown) [Glyceraldehyde, crystalline dimer]
[4]; Table I, 91 days, L-2000 control 23.5
  Caries Score, Mean Incidence: 15.0
[4]; Table I, 91 days, L-2000 control 51.0
  Caries Score, Mean Extent: 29.4
[4]; Table I, 91 days
  Caries Extent Reduction, statistical evaluation: Significant
  Caries Incidence Reduction, statistical evaluation: Significant

## O=CC=O [Glyoxal]
[1]
  Activity, Acid-Production Inhibition, %: ++++ (99 to 100)

## CCCCCCCCCCCC=O [Lauric aldehyde]
[4]; Table II, 90 days, L2000 control 17.4
  Caries Score, Mean Incidence: 10.0
[4]; Table II, 90 days, L2000 control 31.3
  Caries Score, Mean Extent: 15.6
[4]; Table II, 90 days
  Caries Extent Reduction, statistical evaluation: Significant
  Caries Incidence Reduction, statistical evaluation: Significant
Streptococcus spp. FA-1
  Bacterial Population, Experimental: 0
  Inhibition (growth): 100%
L. casei
  Bacterial Population, Experimental: < 1 × 10^2
  Inhibition (growth): > 99.99%
[1]; [12]
  inhibition at 0.1 %: 99 to 100%
[5]; 2 h incubation
  Acid Production Inhibition: 0 Per cent
[5]; 5 h incubation
  Acid Production Inhibition: 0 Per cent
[5]; 24 h incubation
  Acid Production Inhibition: 93 Per cent
[6]; 2 h incubation
  Acid Production Inhibition: 33 Per cent
[6]; 5 h incubation
  Acid Production Inhibition: 96 Per cent
[6]; 24 h incubation
  Acid Production Inhibition: 0 Per cent
Streptococcus spp. KI-R [7]; 2 h incubation
  Acid Production Inhibition: 0 Per cent
Streptococcus spp. KI-R [7]; 5 h incubation
  Acid Production Inhibition: 0 Per cent
Streptococcus spp. KI-R [7]; 24 h incubation
  Acid Production Inhibition: 0 Per cent
[8]; 2 h incubation
  Growth Inhibition: 99.5 Per cent
[8]; 5 h incubation
  Growth Inhibition: > 99.99 Per cent
[8]; 24 h incubation
  Growth Inhibition: 99.99 Per cent
[9]; 2 h incubation
  Growth Inhibition: 99.8 Per cent
[9]; 5 h incubation
  Growth Inhibition: 99.6 Per cent
[9]; 24 h incubation
  Growth Inhibition: N.S.
Streptococcus spp. KI-R [10]; 2 h incubation
  Growth Inhibition: 99.2 Per cent
Streptococcus spp. KI-R [10]; 5 h incubation
  Growth Inhibition: > 99.99 Per cent
Streptococcus spp. KI-R [10]; 24 h incubation
  Growth Inhibition: 100 Per cent
[11]
  Anticaries effect in laboratory animals: significant anticaries activity

## O=CC(=O)C=O [Mesoxalic dialdehyde]
[1]; confirmation of purity and structure lacking, actual activity could be much higher
  Activity, Acid-Production Inhibition, %: + (25 to 74)
